Test results: US11964986B1, “9-oxo-9,10-dihydro-6H-pyrano[3,2-b:4,5-b′]dipyridine-8-carboxylic acid derivatives” (REJUVERON TELOMERE THERAPEUTICS AG, priority 2023, dated 2024)
pEC50, pIC50: −log10 of the molar value. ≈ marks a conversion by molar mass, not a printed value. Read-outs that look alike come from different tables or passages of the source.

Assays:
[1] = target: PAPD7 (Homo sapiens, UniProt Q5XG87); assay: HBsAg ELISA in HepG2/2.2.15 PAPD5 KO cells (PAPD7 inhibitory activity); format: cell-based; conditions: Table 3, HBsAg secretion, 4 days, read-out: pIC50 PAPD7 (PAPD5 KO cells) (converted)
PAPD7, sequence (Q5XG87 whole entry): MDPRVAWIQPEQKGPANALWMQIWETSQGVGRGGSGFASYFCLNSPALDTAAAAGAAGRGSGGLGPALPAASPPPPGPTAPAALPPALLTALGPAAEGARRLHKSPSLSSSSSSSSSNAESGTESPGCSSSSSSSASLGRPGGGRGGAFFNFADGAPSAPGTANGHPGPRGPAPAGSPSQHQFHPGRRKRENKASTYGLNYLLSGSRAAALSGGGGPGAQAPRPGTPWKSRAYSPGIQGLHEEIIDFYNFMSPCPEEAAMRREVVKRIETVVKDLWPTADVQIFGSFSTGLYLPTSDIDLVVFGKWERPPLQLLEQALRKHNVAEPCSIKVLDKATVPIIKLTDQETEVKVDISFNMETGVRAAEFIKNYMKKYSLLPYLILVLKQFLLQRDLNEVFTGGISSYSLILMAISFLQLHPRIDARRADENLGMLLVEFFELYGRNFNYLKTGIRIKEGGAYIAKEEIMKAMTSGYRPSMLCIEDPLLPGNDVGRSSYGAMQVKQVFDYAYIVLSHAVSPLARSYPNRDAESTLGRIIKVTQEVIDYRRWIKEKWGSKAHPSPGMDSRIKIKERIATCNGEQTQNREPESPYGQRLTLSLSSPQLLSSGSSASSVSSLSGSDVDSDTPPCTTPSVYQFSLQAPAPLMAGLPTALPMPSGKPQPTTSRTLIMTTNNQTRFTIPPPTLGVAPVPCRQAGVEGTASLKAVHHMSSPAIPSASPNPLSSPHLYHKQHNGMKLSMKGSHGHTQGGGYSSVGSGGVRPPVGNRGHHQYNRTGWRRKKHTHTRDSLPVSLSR

[2] = test system: HBsAg secretion in HepG2/2.2.15 WT cells (combined effect of PAPD5 and PAPD7 inhibition)
Protocol: (§1) The hepatocarcinoma HepG2/2.2.15 cell line (hereafter referred to as wild type) was obtained from Millipore (SCC249) and HepG2/2.2.15 PAPD5 knock-out (PAPD5 KO) and PAPD7 knock-out (PAPD7 KO) cells were generated using CRISPR/Cas9 technology.
An ELISA was performed using a hepatocarcinoma HepG2/2.2.15 wild type (WT) cell line to assess the potential of the compounds of the present invention as treatments of chronic HBV infection.
(§2) Cell seeding and addition of the compounds: On day −1, HepG2/2.2.15 cell lines were seeded in U-bottom 96-well plates (Fisher Scientific, 10777241) at a density of 1,5×10^4 cells/well in a final volume of 200 μL complemented DMEM/F12. On day 0, medium was aspirated and cells were washed once with PBS (300 μL/well). Then, PBS was replaced with complemented DMEM/F12 (200 μL/well). Using a Tecan-TE300e chemical dispenser, the compounds were added to the cells with 11 half-log incremental dilutions in dimethyl sulfoxide (DMSO) (Sigma-Aldrich, 276855) within the highest concentration equal to 25 μM (concentration range 1). DMSO was used as no-drug control, and the final DMSO concentration in all wells was 0.5%. […] On day 4, the 96-well plate was centrifuged for 5 min at 300 g to spin down cell debris. 100 μL/well of cell culture supernatant were collected and diluted 1:2 with 100 μL of complemented DMEM/F12 to perform the ELISA.
(§3) ELISA: Before starting, the “Hepatitis B surface antigen ELISA kit” (Abnova, KA0286) was equilibrated at room temperature (RT) for 1 h. […] The anti-HB plate was sealed using adhesive foil provided with the kit and incubated for 1 h at 37° C. […] After the last wash, the residual liquid was removed by turning the plate upside down and tapping on adsorbent paper. TMB substrate solutions A and B were mixed in equal volumes and 100 μL/well of this mixture were added to each well. The plate was covered with the supplied tray and incubated at RT for 20 min. During this time, a color develops in proportion to the amount of HBsAg bound to anti-HBs. After incubation, the reaction was stopped by adding 100 μL/well of 2N aqueous H2SO4 solution. The optical density of the developed color was read at 450 nm using a Cytation 5 instrument with reference wavelength at 620 nm.
(§4) CCK8 viability assay: Viability of HepG2/2.2.15 WT, PAPD5 KO and PAPD7 KO cell lines treated with the compounds was determined using the Cell Counting Kit-8 (CCK8, Sigma-Aldrich, 96992) following the manufacturer's instructions. […] During this time, WST-8 is reduced by dehydrogenases in cells to give a yellow-colored product (formazan), which is soluble in the tissue culture medium. The amount of the formazan dye generated by the activity of dehydrogenases in cells is directly proportional to the number of living cells. After 1 h incubation, the optical density of the developed color was read at 450 nm using a Cytation 5 instrument with the reference wavelength at 620 nm. CCK8 optical density values were used for normalization of the ELISA results.
To determine the IC50 values, the amount of HBsAg (optical density values of the ELISA) was corrected by the number of living cells (CCK8 optical density) per each well. Normalized HBsAg values were used to generate a dose-response curve with a non-linear regression model and applying the Levenberg-Marquardt algorithm. The percentage of inhibition was calculated relative to the untreated condition (DMSO CTRLs).

[3] = target: T1, PAPD5 (Homo sapiens, UniProt Q8NDF8); assay: cell-based; set-up: endogenous in cells; host or cells: HepG2/2.2.15 PAPD7 knock-out cells (CRISPR/Cas9); conditions: for Fold sel. for PAPD5 over PAPD7: PAPD7 KO cells vs PAPD5 KO cells
T1 sequence (Q8NDF8 whole entry): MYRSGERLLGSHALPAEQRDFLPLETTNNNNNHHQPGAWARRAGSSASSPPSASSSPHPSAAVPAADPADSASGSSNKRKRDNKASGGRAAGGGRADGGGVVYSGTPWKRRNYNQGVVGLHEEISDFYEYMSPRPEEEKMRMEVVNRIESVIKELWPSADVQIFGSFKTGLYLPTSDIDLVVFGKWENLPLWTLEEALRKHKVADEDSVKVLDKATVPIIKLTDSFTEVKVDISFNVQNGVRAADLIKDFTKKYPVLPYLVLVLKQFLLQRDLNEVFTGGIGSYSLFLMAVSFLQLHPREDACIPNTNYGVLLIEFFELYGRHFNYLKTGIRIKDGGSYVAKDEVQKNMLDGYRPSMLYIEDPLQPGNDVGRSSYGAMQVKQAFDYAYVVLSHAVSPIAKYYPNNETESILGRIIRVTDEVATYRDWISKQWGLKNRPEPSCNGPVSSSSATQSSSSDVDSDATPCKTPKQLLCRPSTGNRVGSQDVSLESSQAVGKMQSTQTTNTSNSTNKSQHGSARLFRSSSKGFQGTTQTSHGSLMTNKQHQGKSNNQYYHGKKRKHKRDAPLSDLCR
Protocol: as §1
To this end, all compounds of the present invention were also tested in an ELISA on HepG2/2.2.15 PAPD5 and PAPD7 KO cell lines to determine the compounds' potency to inhibit PAPD5 and their selectivity for PAPD5 over PAPD7.
as §2, §3, §4
To determine the IC50 values, the amount of HBsAg (optical density values of the ELISA) was corrected by the number of living cells (CCK8 optical density) per each well. Normalized HBsAg values were used to generate a dose-response curve with a non-linear regression model and applying the Levenberg-Marquardt algorithm.

[4] = logD(pH 7.4); format: physicochemical
[5] = kinetic solubility assay at pH 6.5; format: physicochemical; conditions: for solubility kinetic: pH 6.5, kinetic from dmso stock
[6] = test system: telomere length in patient-derived iPSCs; assay: Telomere restriction fragment (TRF) analysis in patient-derived iPSCs; conditions: for telomere elongation: 4-week treatment, increasing concentrations, FIG. 2B
Protocol: Healthy donor- and patient-derived induced Pluripotent Stem Cells (iPSCs), described in Moon et al. 2015, were cultured in feeder-free condition using Matrigel hESC-qualified matrix (Corning, 354277) coated cell culture dishes. For coating, one aliquot of Corning Matrigel hESC-qualified matrix (approximately 300 μL) was thawed on ice and diluted in 25 mL ice-cold DMEM/F-12. […] The coating solution was kept on ice and Matrigel was handled using ice-cold pipette tips. 6 mL of the coating solution were added to one 10 cm cell culture dish and spread by gentle rocking. The coated dishes were then incubated at RT for at least 30 min to let the matrix solidify. The coating solution was aspirated from the dishes and cells were seeded immediately. […] Cells were incubated shortly at 37° C. and the colonies were briefly disaggregated by gentle pipetting or by agitation. The single cell suspension was transferred in a canonical tube with cold 1× PBS and centrifuged at 300 g for 5 min to remove Accutase. Cell pellet was resuspended in an appropriate volume of complemented Essential E8 medium and seeded in a Matrigel-coated dish according to the split ratio.
The scope of this assay is to isolate telomeric DNA from healthy donor- and patient-derived iPSCs and determine the average length of isolated telomeres.
The compounds were dissolved in DMSO at a 10 mM stock concentration and diluted in complemented Essential E8 medium at the reported concentrations (Table 6). For untreated samples (0 nM) DMSO only was added to the medium. Culture medium with the diluted compound was replaced daily, and cells were subcultured as described above.
To carry out the cellular assays, cells were cultured in the presence of PAPD5 inhibitors and collected at different time points. […] (2) At week 4 (Day 28), cells were harvested for DNA isolation to perform Telomere Restriction Fragment (TRF) analysis. […]
Genomic DNA extraction: At day 28 of exposure, 2×10^6 iPSCs per condition were pelleted and resuspended in 200 μl PBS. […] DNA quantification was performed using a Qubit dsDNA BR quantification kit. […]

[7] = Plasma protein binding (fraction unbound)
Description: (§5) In the ELISA 10% plasma protein (p=0.1) is used, whereas the assays using iPSCs are run in a plasma protein-free medium.

[8] = test system: TERC in patient-derived iPSCs; assay: TERC stability by RLM-RACE in patient-derived iPSCs; conditions: 1-week treatment, FIG. 2A
Protocol: For coating, one aliquot of Corning Matrigel hESC-qualified matrix (approximately 300 μL) was thawed on ice and diluted in 25 mL ice-cold DMEM/F-12. […] The coating solution was kept on ice and Matrigel was handled using ice-cold pipette tips. 6 mL of the coating solution were added to one 10 cm cell culture dish and spread by gentle rocking. The coated dishes were then incubated at RT for at least 30 min to let the matrix solidify. The coating solution was aspirated from the dishes and cells were seeded immediately. […] Cells were incubated shortly at 37° C. and the colonies were briefly disaggregated by gentle pipetting or by agitation. The single cell suspension was transferred in a canonical tube with cold 1× PBS and centrifuged at 300 g for 5 min to remove Accutase. Cell pellet was resuspended in an appropriate volume of complemented Essential E8 medium and seeded in a Matrigel-coated dish according to the split ratio.
The compounds were dissolved in DMSO at a 10 mM stock concentration and diluted in complemented Essential E8 medium at the reported concentrations (Table 6). […]
Samples were spun at 12000 g for 10 min at 4° C. […] The RNA concentration was measured using a Qubit HS RNA quantification kit (Thermo Fisher, Q32852). […]
DNA was stored overnight at −20° C. before loading on agarose gel. PCR products were quantified using a Qubit dsDNA BR quantification kit (Thermo Fisher, Q32850). […]

[9] = target: T1, PAPD5; assay: Degree of PAPD5 target engagement calculated for test concentrations in assays using iPSCs; set-up: endogenous in cells
Description: as §5

[10] = test system: HBsAg; conditions: Table 4; effective concentration that achieved 50% inhibitory effect; from WO2019177937; cited from earlier work
[11] = Table 3, HepG2/2.2.15 PAPD7 KO cells, HBsAg secretion, 4 days, read-out: pIC50 PAPD5 (PAPD7 KO cells) (converted)
[12] = Table 5, PAPD7 KO cells, read-out: PIC50 PAPD5 (PAPD7 KO cells) (converted)
[13] = PAPD5 IC50 by ELISA, HepG2/2.2.15 PAPD7 KO cell line, 10% plasma protein, read-out: IC50ELISA
[14] = unbound IC50 in protein-free medium, IC50ELISA*fu,ELISA, read-out: IC50u

`COCCCOc1cc2c(nc1OC)-c1[nH]c(=O)c(C(=O)O)cc1C(C(C)C)O2` (racemic) [Example 501, (RS)-6-Isopropyl-2-methoxy-3-(3-methoxypropoxy)-9-oxo-9,10-dihydro-6H-pyrano[3,2-b:4,5-b′]dipyridine-8-carboxylic acid] showed an IC50 [1] of 39.8 nM, a pIC50 [2] of 8.10 and an IC50 [3, 11] of 6.31 nM. The “Fold sel. for PAPD5 over PAPD7” value ([3]; Table 3) was 7.1 Fold.

Work on `COCCCOc1cc2c(nc1OC)-c1c(cc(C(=O)O)c(=O)n1C)C(C(C)C)O2` (racemic) [Example 502, (RS)-6-Isopropyl-2-methoxy-3-(3-methoxypropoxy)-10-methyl-9-oxo-9,10-dihydro-6H-pyrano[3,2-b:4,5-b′]dipyridine-8-carboxylic acid] yielded an IC50 [1] of 12.6 nM and a pIC50 [2] of 8.20.

`CCn1c2c(cc(C(=O)O)c1=O)C(C(C)C)Oc1cc(OCCCOC)c(OC)nc1-2` (racemic) [Example 503, (RS)-10-Ethyl-6-isopropyl-2-methoxy-3-(3-methoxypropoxy)-9-oxo-9,10-dihydro-6H-pyrano[3,2-b:4,5-b′]dipyridine-8-carboxylic acid] gave an IC50 [1] of 5.01 nM, a pIC50 [2] of 8.90 and an IC50 [3, 11] of 1 nM. For the same compound, the “Fold sel. for PAPD5 over PAPD7” value ([3]; Table 3) was 5.9 Fold.

With `COCCCOc1cc2c(nc1OC)-c1c(cc(C(=O)O)c(=O)n1C1CC1)C(C(C)C)O2` (racemic) [Example 504, (RS)-10-Cyclopropyl-6-isopropyl-2-methoxy-3-(3-methoxypropoxy)-9-oxo-9,10-dihydro-6H-pyrano[3,2-b:4,5-b′]dipyridine-8-carboxylic acid] the IC50 [1] was 2.51 nM, the pIC50 [2] was 9.30 and the IC50 [3, 11] was 0.631 nM. For the same compound, the “Fold sel. for PAPD5 over PAPD7” value ([3]; Table 3) was 4.8 Fold.

Compound `COCCCOc1cc2c(nc1OC)-c1[nH]c(=O)c(C(=O)O)cc1C(C(C)(C)C)O2` (racemic) [Example 505, (RS)-6-(tert-Butyl)-2-methoxy-3-(3-methoxypropoxy)-9-oxo-9,10-dihydro-6H-pyrano[3,2-b:4,5-b′]dipyridine-8-carboxylic acid] has a logD [4] of 1.1, an IC50 [1] of 10 nM and a pIC50 [2] of 8.70. The “fold more soluble than example 701” value ([5]; kinetic solubility assay at pH 6.5) was 2.6 fold, the solubility kinetic [5] was 484 µM (≈ 203 µg/mL) and the IC50 [3, 11] was 2 nM. The “Fold sel. for PAPD5 over PAPD7” value ([3]; Table 3) was 4.9 Fold and the IC50 [3, 12] was 2 nM.

For `COCCCOc1cc2c(nc1OC)-c1c(cc(C(=O)O)c(=O)n1C1CC1)C(C(C)(C)C)O2` (racemic) [Example 506, (RS)-6-(tert-Butyl)-10-cyclopropyl-2-methoxy-3-(3-methoxypropoxy)-9-oxo-9,10-dihydro-6H-pyrano[3,2-b:4,5-b′]dipyridine-8-carboxylic acid], the “telomere length after elongation” value ([6]; 0.5 nM, 4 weeks of treatment) was “up to 8 kb”, the telomere elongation [6] was “dose-dependently effects telomere elongation” and the fraction unbound [7] was 0.347. The fraction unbound ([7]; fu, ELISA, fraction unbound in ELISA, calculated with p = 0.1) was 0.84, the “levels of the mature and stable form of TERC” value [8] was “restores the steady-state and physiological levels of the mature and stable form of TERC” and the IC50 [1] was 0.501 nM. The pIC50 [2] was 9.70, the “% Target engagement (X)” value ([9]; test conc. 0.1 nM) was 54% and the “% Target engagement (X)” value ([9]; test conc. 0.5 nM) was 86%. For the same compound, the “% Target engagement (X)” value ([9]; test conc. 2.5 nM) was 97%, the pIC50 [3, 13] was 10.07 and the “Fold sel. for PAPD5 over PAPD7” value ([3]; Table 3) was 6.1 Fold. It also gave an IC50 [3, 12] of 0.0794 nM and a pIC50 [3, 14] of 10.15.

`COCCCOc1cc2c(nc1C1CC1)-c1[nH]c(=O)c(C(=O)O)cc1C(C(C)(C)C)O2` (racemic) [Example 507, (RS)-6-(tert-Butyl)-2-cyclopropyl-3-(3-methoxypropoxy)-9-oxo-9,10-dihydro-6H-pyrano[3,2-b:4,5-b′]dipyridine-8-carboxylic acid] gave an IC50 [1] of 0.631 nM, a pIC50 [2] of 9.10 and an IC50 [3, 11] of 0.398 nM. The “Fold sel. for PAPD5 over PAPD7” value ([3]; Table 3) was 1.8 Fold.

`COCCCOc1cc2c(nc1C1CC1)-c1c(cc(C(=O)O)c(=O)n1C1CC1)C(C(C)(C)C)O2` (racemic) [Example 508, (RS)-6-(tert-butyl)-2,10-dicyclopropyl-3-(3-methoxypropoxy)-9-oxo-9,10-dihydro-6H-pyrano[3,2-b:4,5-b′]dipyridine-8-carboxylic acid] gave an IC50 [1] of 0.1 nM, a pIC50 [2] of 10.20 and an IC50 [3, 11] of 0.1 nM. For the same compound, the “Fold sel. for PAPD5 over PAPD7” value ([3]; Table 3) was 1.0 Fold.

Compound `COCCCOc1cc2c(nc1OC)-c1c(cc(C(=O)O)c(=O)n1CCO)C(C(C)C)O2` (racemic) [Example 510, (RS)-10-(2-Hydroxyethyl)-6-isopropyl-2-methoxy-3-(3-methoxypropoxy)-9-oxo-9,10-dihydro-6H-pyrano[3,2-b:4,5-b′]dipyridine-8-carboxylic acid] has an IC50 [1] of 31.6 nM, a pIC50 [2] of 7.80 and an IC50 [3, 11] of 5.01 nM. For the same compound, the “Fold sel. for PAPD5 over PAPD7” value ([3]; Table 3) was 6.4 Fold.

Work on `COCCCOc1cc2c(nc1OC)-c1c(cc(C(=O)O)c(=O)n1CC(F)F)C(C(C)C)O2` (racemic) [Example 511, (RS)-10-(2,2-Difluoroethyl)-6-isopropyl-2-methoxy-3-(3-methoxypropoxy)-9-oxo-9,10-dihydro-6H-pyrano[3,2-b:4,5-b′]dipyridine-8-carboxylic acid] yielded an IC50 [1] of 5.01 nM, a pIC50 [2] of 8.90 and an IC50 [3, 11] of 0.794 nM. For the same compound, the “Fold sel. for PAPD5 over PAPD7” value ([3]; Table 3) was 6.9 Fold.

With `COCCCOc1cc2c(nc1OC)-c1[nH]c(=O)c(C(=O)O)cc1C(C(C)(C)C)C2` (racemic) [Example 701, (RS)-5-(tert-Butyl)-9-methoxy-8-(3-methoxypropoxy)-2-oxo-1,2,5,6-tetrahydro-1,10-phenanthroline-3-carboxylic acid, reference compound] the logD [4] was 1.4 and the solubility kinetic [5] was 186 µM (≈ 77.3 µg/mL).

With `COCCCOc1cc2c(nc1OC)-c1c(cc(C(=O)O)c(=O)n1C1CC1)C(C(C)(C)C)C2` (racemic) [Example 702, (RS)-5-(tert-Butyl)-1-cyclopropyl-9-methoxy-8-(3-methoxypropoxy)-2-oxo-1,2,5,6-tetrahydro-1,10-phenanthroline-3-carboxylic acid, reference compound] the pIC50 [2] was 8.60 and the IC50 [3, 12] was 3.16 nM.

In the case of `COCCCOc1cc2c(cc1OC)-c1[nH]c(=O)c(C(=O)O)cc1C(C(C)(C)C)O2` (racemic) [Example 801, (RS)-5-(tert-Butyl)-9-methoxy-8-(3-methoxypropoxy)-2-oxo-1,5-dihydro-2H-chromeno[4,3-b]pyridine-3-carboxylic acid, reference compound], the pIC50 [2] was 7.40 and the IC50 [3, 12] was 50.1 nM.

Work on `COCCCOc1cc2c(cc1OC)-c1c(cc(C(=O)O)c(=O)n1C1CC1)C(C(C)(C)C)O2` (racemic) [Example 802, (RS)-5-(tert-Butyl)-1-cyclopropyl-9-methoxy-8-(3-methoxypropoxy)-2-oxo-1,5-dihydro-2H-chromeno[4,3-b]pyridine-3-carboxylic acid, reference compound] yielded a pIC50 [2] of 9.00.

`COCCCOc1cc2c(nc1OC)-c1[nH]c(=O)c(C(=O)O)cc1C1(CCCC1)O2` [Example 509, 2′-Methoxy-3′-(3-methoxypropoxy)-9′-oxo-9′,10′-dihydrospiro[cyclopentane-1,6′-pyrano[3,2-b:4,5-b′]dipyridine]-8′-carboxylic acid] showed an IC50 [1] of 316 nM, a pIC50 [2] of 7.60 and an IC50 [3, 11] of 31.6 nM. The “Fold sel. for PAPD5 over PAPD7” value ([3]; Table 3) was 10.4 Fold.

For `COCCCOc1cc2c(cc1OC)-c1cc(=O)c(C(=O)O)cn1[C@H](C(C)C)C2` [RG7834], the telomere elongation [6] was “dose-dependently effects telomere elongation”, the “levels of the mature and stable form of TERC” value [8] was “restores the steady-state and physiological levels of the mature and stable form of TERC” and the “fu, plasma” value was 0.328. The “fu, ELISA” value (plasma) was 0.83, the “% Target engagement (X)” value ([9]; test conc. 0.3 nM) was 16% and the “% Target engagement (X)” value ([9]; test conc. 1 nM) was 38%. For the same compound, the “% Target engagement (X)” value ([9]; test conc. 3 nM) was 65%, the “% Target engagement (X)” value ([9]; test conc. 10 nM) was 86% and the “% Target engagement (X)” value ([9]; test conc. 30 nM) was 95%. The pIC50 [3, 13] was 8.79 and the pIC50 [3, 14] was 8.87.

For “(RS)-6-Isopropyl-2-methoxy-3-(3-methoxypropoxy)-9-oxo-9,10-dihydro-6H-pyrano[3,2-b:4,5-b′]dipyridine-8-carboxylic acid [Example 501]”, the pEC50 [10] is given as 7.03.
